Patent US20250263437A1, “POLYPEPTIDE FOR REPAIRING SKIN WOUND OR MUCOSAL INJURY, AND APPLICATION THEREOF” (Sichuan Gooddoctor Panxi Pharmaceutical Co., Ltd., priority 2021, published 2025)
Where no end group is shown, it is not given here.

Columns and labels:
FGFR1 = FGFR1 (Homo sapiens, UniProt P11362); assay: FGFR receptor binding assay: ultrafiltration/mass spectrometry affinity screening to FGFR1 protein target; conditions: ratio of lower-layer to upper-layer compound MS signal intensity; the greater the ratio, the stronger the affinity
Experimental: The affinity of the polypeptide compound prepared by the present invention to FGFR1 was tested by using a control FGFR1 allosteric inhibitor (product number SSR128129E from Sigma) as a positive compound control.
Screening for the affinity to FGFR1 was as follows: FGFR1 solutions with an appropriate concentration were taken, the positive compound SSR128129E (Sigma) at an appropriate concentration and sample solutions of the inventive polypeptide compounds, as freeze-dried powders, dissolved in protein buffers were then respectively added. After incubation at room temperature for 50 min, ultrafiltration and screening were carried out to obtain various treated solutions. An appropriate volume of acetonitrile was added to each treated solution to precipitate a protein, the solution was then centrifuged, and the supernatant was taken and analyzed by mass spectrometry.
Affinity screening conditions: One-dimensional liquid-phase conditions were: chromatographic column; PolyLC chromatographic column, mobile phase A: KH2PO4, NaCl, pH 7.5, mobile phase B: acetonitrile, column temperature: 8° C., flow rate: 1 mL/min, and injection volume: appropriate; and two-dimensional liquid-phase conditions were: chromatographic column: BONUS RRHD, mobile phase A: 0.1% formic acid aqueous solution, mobile phase B: 0.1% formic acid in acetonitrile, column temperature: 60° C., flow rate: 0.3 mL/min, and injection volume: 40 uL. Gradient elution was used, i.e., 98% A (0-1 min), 98-10% A (1-6 min), 10% A (6-7.5 min), 10-98% A (7.5-8 min), and 98% A (8-9.5 min). Mass spectrometry conditions: Agilent 6530 Q-Tof, ESI ion source, voltage 3.5 KV, mass-to-charge ratio scanning range m/z=200-3000, acquisition mode: positive ion scanning, ion source temperature: 350° C., solvent removal temperature: 300° C., and nitrogen flow rate: 8 L/min.

[1] = system: acute mechanical skin injury in rats; assay: Healing effect on acute mechanical skin injury in rats; assay type: in vivo; conditions: for promoting wound healing (in words): 40 μg/cm^2; for wound healing rate, 5 days / wound healing rate, 10 days / wound healing rate, 14 days: polypeptide 40 μg/cm^2, Jinyintai 40 IU/cm^2, topical once daily, in % (unit assumed)
Experimental: SPF grade SD rats, weighing 180-230 g, were raised in respective clean sterilized cages, with water, feed and padding replacement given regularly every day. The feeding temperature was kept at 22° C. and the humidity was 55-65%. They were raised for one week for acclimatization. According to a random grouping method, the animals were divided into a model control group (normal saline), a Jinyintai control group (40 IU/cm^2, Shenzhen Watsin Genetech Ltd.) and a test polypeptide treatment group (40 μg/cm^2), with 6 animals in each group. After the rats were successfully anesthetized by intraperitoneal injection of 3% pentobarbital sodium, the hair within 1 cm around the edge of the wound was cut off, and the wound area was disinfected first with iodophor and then with 75% alcohol locally. A round full-thickness skin wound of 1.5 cm×1.5 cm (i.e., 1.5 cm in diameter) was made near the neck at 4 cm down to the back from the middle of the connecting line of the ears, with the spine as the midline. It went deep into the muscle layer, forming an animal model of acute mechanical injury. After modeling, the rats were raised in individual cages with the wounds exposed. During dressing replacement, the rats were all first debrided with iodophor, and then, the wound was washed with sterile normal saline and wiped dry. Except the model group, the wounds of the rats in the other groups were locally coated with 40 μL of the corresponding drug solution once daily. On days 0, 5, 10 and 14 of administration, the wound images of the rats in each group were taken, and the wound area was calculated by means of an image analysis software (Image J). According to the formula, the wound healing rate was obtained.

HaCaT cells = assay: Proliferation of HaCaT cells (CCK8); assay type: cell-based, human; conditions: 0.2-0.8 μg/mL; 24 h, 48 h and 72 h; 1% serum
Experimental: Experimental method: Immortalized human keratinocytes (HaCaT cells) was adjusted to a concentration of 1.0×10^5 to 5.0×10^5/mL for passaging, and they were cultured at 37° C. and 5% CO2 for 24-36 h for biological activity detection. The cells were digested with 0.25% trypsin for 5 min, 1640 whole blood culture medium, the volume of which was not less than 1 time of the volume of the trypsin, was added to stop digestion, a cell suspension was collected, centrifuged at 1000 RPM for 3 min, the supernatant was discarded, 2 mL of 1640 whole blood culture medium was added to suspend the cells, 20 μL of the cell suspension was taken and stained with AOPI, the concentration of cells in the suspension was then detected by a cell counter, the suspension was prepared to a concentration of 5×10^4/mL with 1640 culture medium containing serum at a concentration of 10% and inoculated into a 96-well cell culture plate, with 100 μL per well, i.e., 5000 cells/well, and the plate was cultured at 37° C. and 5% CO2 overnight.
After 24 h, the original culture medium was discarded, and 100 μL of polypeptide compound solutions with different concentrations prepared with 1640 culture medium containing serum at a concentration of 1% were added, such that the final concentrations of the polypeptide compounds to be tested were 0.2, 0.4 and 0.8 ug/mL, respectively. In addition, an EGF control group was prepared by adding 100 μL of a recombinant human epidermal growth factor (EGF) solution prepared with 1640 culture medium containing serum at a concentration of 1%, with the final concentration being 100 ng/ml. In the model control group, an equal volume of 1640 culture medium containing serum at a concentration of 1% was added. After culturing at 37° C. and 5% CO2 for 24 h, 48 h and 72 h, the proliferation of the HaCaT cell line was detected by means of CCK8 kit.

FGFR1, sequence (P11362 22-822, species assumed): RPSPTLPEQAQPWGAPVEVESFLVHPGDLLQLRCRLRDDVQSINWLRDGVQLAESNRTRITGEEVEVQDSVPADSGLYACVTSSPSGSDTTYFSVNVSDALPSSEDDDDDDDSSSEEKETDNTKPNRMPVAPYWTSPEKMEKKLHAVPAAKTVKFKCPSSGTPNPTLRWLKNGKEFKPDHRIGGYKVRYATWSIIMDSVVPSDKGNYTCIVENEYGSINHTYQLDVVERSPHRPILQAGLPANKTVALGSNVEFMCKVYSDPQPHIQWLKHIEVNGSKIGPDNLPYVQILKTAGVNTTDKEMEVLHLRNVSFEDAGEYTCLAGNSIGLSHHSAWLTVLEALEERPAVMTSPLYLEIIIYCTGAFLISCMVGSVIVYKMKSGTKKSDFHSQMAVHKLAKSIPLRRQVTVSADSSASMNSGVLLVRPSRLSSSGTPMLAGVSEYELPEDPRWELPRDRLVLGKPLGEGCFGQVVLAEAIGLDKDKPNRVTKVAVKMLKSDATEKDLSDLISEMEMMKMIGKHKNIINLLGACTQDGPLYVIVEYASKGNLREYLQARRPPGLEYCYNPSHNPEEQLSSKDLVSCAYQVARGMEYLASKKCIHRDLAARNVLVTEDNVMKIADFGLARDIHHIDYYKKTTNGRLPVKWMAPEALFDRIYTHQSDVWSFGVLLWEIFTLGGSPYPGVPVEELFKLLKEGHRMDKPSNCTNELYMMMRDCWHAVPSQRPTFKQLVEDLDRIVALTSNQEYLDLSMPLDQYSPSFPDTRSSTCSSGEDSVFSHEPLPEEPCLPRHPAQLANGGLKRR

Cb/Ct range (FGFR1) | Sequence | promoting wound healing (in words) [1] | wound healing rate, 5 days [1] | wound healing rate, 10 days [1] | wound healing rate, 14 days [1] | effect on proliferation of HaCaT cells (HaCaT cells)
1.0-3 | AAVLDKLE [Compound 68] | trend of promoting wound healing | 29.26 ± 6.46 | 60.97 ± 2.87 | 88.42 ± 4.79 | proliferation-promoting effect
1.0-3 | SMQASLEAEAKGKAE [Compound 1] | trend of promoting wound healing | 31.68 ± 3.48 | 63.20 ± 3.87 | 91.43 ± 2.87 | proliferation-promoting effect
1.0-3 | VDAAVLEKLE [Compound 67] | trend of promoting wound healing | 30.40 ± 3.35 | 61.42 ± 5.73 | 90.87 ± 3.94 | proliferation-promoting effects
